Assay results reported in patent US20140329844A1, “METHOD OF RESTORING THE INCRETIN EFFECT” (NEURENDO PHARMA, LLC, priority 2006, published 2014).
Values joined by “and” are separate entries in the source; they are usually repeats but may differ in a detail not shown here. Equal entries are not always repeated.

Legend:
[1] = Daily blood glucose profile of a subject with early stage Type 2 diabetes during GNTI administration; type: in vivo; settings: human; for Average blood glucose by day of week / Readings In Target, 65-155 (as %) / Readings Lows, 51-64 (as %): GNTI once weekly
Experimental: The daily blood glucose profile of a subject with early stage, [non-insulin dependent] Type 2 diabetes was monitored during extended periods of administration of guanidinylated naltrindole (GNTI).
A weekly dose of about 70 ng/kg was administered.
FIGS. 1-3 illustrate the blood glucose readings over an extended period of time, a modal week and a modal day. The target blood glucose range was 65-155 mg/dL. Table 3 illustrates that 98% of the readings were within the target range. The other 2% of the readings fell below the target range and fell between 51-64 mg/dL.
FIGS. 1-3 illustrate the subject's blood glucose readings over an extended period of time, a modal week, and a modal day. Accordingly, 227 blood glucose readings were taken, averaging 92 mg/dL over a 15 day period. 98% of all readings were between 65 and 127 mg/dL, and 2% between […], representing a very narrow overall spread.

[2] = Weight (BMI) of the subject with early stage Type 2 diabetes during GNTI administration; type: in vivo; settings: human, extended periods of GNTI administration
Text: The weight of the subject with early stage Type 2 diabetes mellitus was also monitored during extended periods of administration on GNTI, decreasing from, a baseline body mass index (BMI) of 25 to an average BMI of 22.8, corresponding to a reduction by about 9%.

[3] = Blood glucose, HDL-C and triglycerides in rhesus monkeys after an oral dose of GNTI; type: in vivo, rhesus monkey
Experimental: A cohort of rhesus monkeys having progressively increasing degrees of impaired glucose tolerance were monitored following an oral dose of GNTI of 86 ng/kg of body weight. Baseline readings of blood glucose (BC), high density lipoprotein C (HDL-C) and triglycerides (TO) were taken on Day 0.
The effect of GNTI was most readily seen in the change of blood glucose and blood lipid levels. […] The other 4 subjects of the cohort, i.e., r98060, r96027, r00072, r01078, had baseline blood glucose levels ranging from 71-81 and were considered to have impaired glucose tolerance.

[4] = Meal tolerance test (MTT) in metabolically impaired rhesus monkeys treated with GNTI; type: in vivo, rhesus monkey; settings: for BG / GIP / GLP-1 / Glucagon / Insulin / Glucagon Change T0-T60/120: individual animals
Experimental: To test for the effect of physiological first phase insulin secretion, a meal tolerance test (MTT) was developed. The meal tolerance test involved oral administration of meal based nutrients within suitable ratios of carbohydrates, proteins and fats. The ratios used for the given example were 70% carbohydrates, 8% protein and 22% fats. […] Following MTV administration, the same readings were taken at time points of 3-9 minutes to test for first-phase insulin secretion and the subsequent reduction in blood glucose. It was determined that a first-phase insulin secretion dependent slight increase in insulin concentration appeared, typically, at 5 minutes post MTT administration, followed by a corresponding blood glucose decrease at 7 minutes. A slight decrease in glucagon levels was also coupled with first-phase insulin secretion at 5 minutes. The MTT serves as a corollary to the intravenous glucose tolerance test (MITT) and better measures first-phase insulin secretion because oral administration of nutrients has a more direct effect on the incretin effect.
Table 7 illustrates administration of the MTT to two rhesus monkeys categorized as metabolically “normal’ based on “normal” fasting blood glucose values. The monkeys were given a diet of 55-60% carbohydrates, 15-25% protein, and 15-30% fat. Readings of blood glucose, insulin, and glucagon were taken at time points 0, 5, 7, 60 and 120 minutes. Additionally, at the same time points, the incretin hormones, GIP and GLP-1 were measured to more directly measure the incretin effect. […] Comparison of blood glucose levels at time points 0 and 120 minutes illustrates that normal metabolic functioning has returned the subject's blood glucose levels to normal within 120 minutes of MTT administration.
Table 8 illustrates the effect of GNTI on physiologic control of glucagon Baseline readings were taken on Day 1 of blood glucose, insulin, glucagon, GIP, and GLP-1 in metabolically impaired rhesus monkeys as determined through administration of the MTT. Cumulative in-situ doses of 45 ng/kg and 95 ng/kg were active on day 5 and day 7, respectively, during administration of the MTT. Readings of blood glucose, insulin, glucagon, GIP, and GLP-1 were taken at time points 0, 60 minutes and 120 minutes.

[5] = GNTI about 70 ng/kg weekly, Early AM 00:00-04:59
[6] = GNTI about 70 ng/kg weekly, Evening 15:00-18:59
[7] = GNTI about 70 ng/kg weekly, Midday 11:00-14:59
[8] = GNTI about 70 ng/kg weekly, Morning 05:00-10:59
[9] = GNTI about 70 ng/kg weekly, Night 19:00-23:59
[10] = GNTI about 70 ng/kg weekly, all readings, 15 day period
[11] = GNTI about 70 ng/kg weekly, of 227 readings
[12] = GNTI about 70 ng/kg weekly, overall
[13] = early stage Type 2 diabetes, GNTI about 70 ng/kg weekly, 15 days
[14] = four dyslipidemic rhesus monkeys, day 8, oral GNTI 86 ng/kg
[15] = rhesus monkeys, individual animals, Day 8 after oral GNTI 86 ng/kg on Day 0
[16] = Day 5, GNTI 45 ng/kg cumulative, MTT TP 0 min
[17] = Day 5, GNTI 45 ng/kg cumulative, MTT TP 60 min
[18] = Day 5, GNTI 45 ng/kg cumulative, MTT TP 120 min
[19] = Day 7, GNTI 95 ng/kg cumulative, MTT TP 0 min
[20] = Day 7, GNTI 95 ng/kg cumulative, MTT TP 60 min
[21] = Day 7, GNTI 95 ng/kg cumulative, MTT TP 120 min

NC(N)=Nc1ccc2[nH]c3c(c2c1)C[C@@]1(O)[C@H]2Cc4ccc(O)c5c4[C@@]1(CCN2CC1CC1)[C@H]3O5 [GNTI, guanidinylated naltrindole]
Average blood glucose [1, 5]: 79 mg/dL
Readings In Target, 65-155 mg/dL [1, 5]: 100%
Average blood glucose [1, 6]: 91 mg/dL
Readings In Target, 65-155 mg/dL [1, 6]: 100%
Average blood glucose [1, 7]: 92 mg/dL
Readings In Target, 65-155 mg/dL [1, 7]: 98%
Readings Lows, 51-64 mg/dL [1, 7]: 2%
Average blood glucose [1, 8]: 90 mg/dL
Readings In Target, 65-155 mg/dL [1, 8]: 97%
Readings Lows, 51-64 mg/dL [1, 8]: 3%
Average blood glucose [1, 9]: 95 mg/dL
Readings In Target, 65-155 mg/dL [1, 9]: 97%
Readings Lows, 51-64 mg/dL [1, 9]: 3%
Readings between 61 and 65 mg/dL [1, 10]: 2%
Readings between 65 and 127 mg/dL [1, 10]: 98%
Number of readings High (156-300 mg/dL) [1, 11]: 0
Number of readings Low (51-64 mg/dL) [1, 11]: 5
Number of readings Target (65-155 mg/dL) [1, 11]: 222
Number of readings Very High (301-601 mg/dL) [1, 11]: 0
Number of readings Very Low (0-50 mg/dL) [1, 11]: 0
Percent of readings High (156-300 mg/dL) [1, 12]: 0%
Percent of readings Very High (301-601 mg/dL) [1, 12]: 0%
Percent of readings Very Low (0-50 mg/dL) [1, 12]: 0%
Readings In Target, 65-155 mg/dL [1, 12]: 98%
Readings Lows, 51-64 mg/dL [1, 12]: 2%
Readings in the hypoglycemic range ([1]; GNTI about 70 ng/kg weekly, readings below target range): none of these readings were in the hypoglycemic range
Average blood glucose by day of week ([1]; Fri): 96 mg/dL
Readings In Target, 65-155 (as %) ([1]; Fri): 100%
Average blood glucose by day of week ([1]; Mon): 92 mg/dL
Readings In Target, 65-155 (as %) ([1]; Mon): 100%
Average blood glucose by day of week ([1]; Sat): 92 mg/dL
Readings In Target, 65-155 (as %) ([1]; Sat): 100%
Average blood glucose by day of week ([1]; Sun): 92 mg/dL
Readings In Target, 65-155 (as %) ([1]; Sun): 100%
Average blood glucose by day of week ([1]; Thur): 94 mg/dL
Readings In Target, 65-155 (as %) ([1]; Thur): 100%
Average blood glucose by day of week ([1]; Tue): 87 mg/dL
Readings In Target, 65-155 (as %) ([1]; Tue): 87%
Readings Lows, 51-64 (as %) ([1]; Tue): 13%
Average blood glucose by day of week ([1]; Wed): 88 mg/dL
Readings In Target, 65-155 (as %) ([1]; Wed): 93%
Readings Lows, 51-64 (as %) ([1]; Wed): 7%
Average blood glucose by day of week ([1]; Weekdays): 92 mg/dL
Readings In Target, 65-155 (as %) ([1]; Weekdays): 97%
Readings Lows, 51-64 (as %) ([1]; Weekdays): 3%
Average blood glucose by day of week ([1]; Weekends): 92 mg/dL
Readings In Target, 65-155 (as %) ([1]; Weekends): 100%
Highest Blood Glucose [1, 13]: 127 mg/dL
Lowest Blood Glucose [1, 13]: 61 mg/dL
Average blood glucose ([1]; early stage Type 2 diabetes, GNTI about 70 ng/kg weekly, overall, 15 days, 227 readings): 92 mg/dL
Maintenance of blood glucose levels within the target range ([1]; once weekly administration, target 65-155 mg/dL): aided in maintaining blood glucose levels within the target range
Reduction of BMI from baseline [2]: about 9%
Average body mass index (BMI) ([2]; baseline BMI 25): 22.8
Decrease in blood glucose, average ([3]; 4 rhesus monkeys having impaired glucose tolerance, day 8, oral GNTI 86 ng/kg): 26%
HDL-C increase, average [3, 14]: 23%
HDL-C increase, range [3, 14]: 10-31%
Decrease in blood glucose levels ([3]; glucose normal rhesus monkey r89163, day 8, oral GNTI 86 ng/kg): 3%
Increase in HDL-C lipid levels ([3]; lipid normal rhesus monkey r98068, day 8, oral GNTI 86 ng/kg): 5%
BG [3, 15]: 51 mg/dL and 53 mg/dL and 67 mg/dL and 56 mg/dL and 63 mg/dL
HDL-C [3, 15]: 85 mg/dL and 46 mg/dL and 61 mg/dL and 63 mg/dL and 84 mg/dL
TG [3, 15]: <45 mg/dL (3×) and 89 mg/dL and 60 mg/dL
BG Change ([3]; rhesus monkeys, individual animals, Day 8 vs Baseline, oral GNTI 86 ng/kg): (−3%)
Effect on glucagon after MTT ([4]; both dosages (45 and 95 ng/kg), time points 60 and 120, all subjects tested): marked decrease in glucagon
BG [4, 16]: 83 mg/dL and 69 mg/dL and 51 mg/dL
GIP [4, 16]: 50 pg/mL and 8 pg/mL
GLP-1 [4, 16]: 34 pmol/L and 19 pmol/L and 11 pmol/L
Glucagon [4, 16]: 411 pg/mL (2×) and 302 pg/mL
Insulin [4, 16]: 57 microU/mL and 23 microU/mL and 14 microU/mL
BG [4, 17]: 98 mg/dL and 70 mg/dL and 64 mg/dL
GIP [4, 17]: 640 pg/mL and 320 pg/mL and 650 pg/mL
GLP-1 [4, 17]: 83 pmol/L and 49 pmol/L and 31 pmol/L
Glucagon [4, 17]: 366 pg/mL and 172 pg/mL and 267 pg/mL
Insulin [4, 17]: 396 microU/mL and 145 microU/mL and 122 microU/mL
BG [4, 18]: 61 mg/dL and 78 mg/dL and 76 mg/dL
GIP [4, 18]: 760 pg/mL and 775 pg/mL
GLP-1 [4, 18]: 31 pmol/L and 82 pmol/L and 79 pmol/L
Glucagon [4, 18]: 261 pg/mL and 249 pg/mL and 122 pg/mL
Insulin [4, 18]: 200 microU/mL and 249 microU/mL and 137 microU/mL
Glucagon Change T0-T60/120 ([4]; Day 5, GNTI 45 ng/kg cumulative, T0 to T60 min): −11% and −43% and −35%
Glucagon Change T0-T60/120 ([4]; Day 5, GNTI 45 ng/kg cumulative, T0 to T120 min): −36% and −39% and −60%
BG [4, 19]: 56 mg/dL and 82 mg/dL and 73 mg/dL
GIP [4, 19]: 30 pg/mL and 25 pg/mL and 20 pg/mL
GLP-1 [4, 19]: 28 pmol/L and 60 pmol/L and 67 pmol/L
Glucagon [4, 19]: 472 pg/mL and 487 pg/mL and 293 pg/mL
Insulin [4, 19]: 14 microU/mL and 71 microU/mL and 30 microU/mL
BG [4, 20]: 70 mg/dL and 106 mg/dL and 69 mg/dL
GIP [4, 20]: 675 pg/mL (2×) and 75 pg/mL
GLP-1 [4, 20]: 35 pmol/L and 60 pmol/L
Glucagon [4, 20]: 240 pg/mL and 351 pg/mL and 107 pg/mL
Insulin [4, 20]: 100 microU/mL and 401 microU/mL and 54 microU/mL
BG [4, 21]: 63 mg/dL and 95 mg/dL and 86 mg/dL
GIP [4, 21]: 675 pg/mL and 775 pg/mL and 240 pg/mL
GLP-1 [4, 21]: 223 pmol/L and 77 pmol/L
Glucagon [4, 21]: 271 pg/mL and 267 pg/mL and 108 pg/mL
Insulin [4, 21]: 54 microU/mL and 307 microU/mL and 71 microU/mL
Glucagon Change T0-T60/120 ([4]; Day 7, GNTI 95 ng/kg cumulative, T0 to T60 min): −49% and −28% and −63%
Glucagon Change T0-T60/120 ([4]; Day 7, GNTI 95 ng/kg cumulative, T0 to T120 min): −43% and −45% and −63%
